Patent US11173196B2, “Vectors for expression of prostate-associated antigens” (Pfizer Inc., priority 2013, dated 2021)
Where two headings read alike, the source gives them in different places.

What was measured:
293 cells = assay: Expression of PSMA constructs in mammalian 293 cells by FACS; assay type: cell-based
Protocol: The expression of the PSMA cytosolic, secreted, and modified antigens was determined by FACS. Mammalian 293 cells were transfected with the PJV7563 PMED vectors encoding the various immunogenic PSMA polypeptides. Three days later, the 293 cells were stained with mouse anti-PSMA antibody, followed with a fluorescent conjugated (FITC) rat anti-mouse secondary antibody.

[1] = cited from earlier work
[2] = cited from earlier work; remark: listed apart in the source
rhesus PSMA = assay: IFNγ ELISPOT from PBMCs, rhesus PSMA adenovirus vaccine with subcutaneous anti-CTLA-4 antibody; assay type: in vivo, Indian rhesus macaques
Protocol: Animal Treatment and Sample Collection. Five groups of male Indian rhesus macaques, seven (#1 to 7) per each test group, were immunized with an adenovirus encoding a rhesus PSMA modified polypeptide delivered by bilateral intramuscular injections (2× 5e10 V.P.). Immediately following the adenovirus injections, group 1 received vehicle, and groups 2 to 4 received bilateral subcutaneous injections of anti-CTLA-4 antibody (CP-675, 206) at doses 2× 25 mg, 2× 16.7 mg and 2× 8.4 mg respectively in proximity to the vaccine draining lymph node.
Nine days after the immunization, peripheral blood mononuclear cells (PBMCs) were isolated from each animal and were subjected to an IFNγ ELISPOT assay to measure the rhesus PSMA specific T cell responses. Briefly, 4e5 PBMCs from individual animals were plated per well with pools of rhesus PSMA specific peptides (P1, P2, P3 or R1+R2 defined in Table 24A) or nonspecific control peptides (human HER2 peptide pool) each at 2 ug/ml in IFN[…] ELISPOT plates. The plates were incubated for 16 hrs at 37° C. and 5% CO2 and washed and developed after incubation as per manufacturer's instruction. The number of IFNγ spot forming cells (SFC) was counted by CTL reader. Each condition was performed in duplicates. The average of the duplicates from the background adjusted SFC of the rhesus PSMA specific peptide pools was normalized to the response in 1e6 PBMCs.
IFNγ ELISPOT Assay Procedure. A capture antibody specific to IFNγ ([…]BD Bioscience, #51-2525kc) is coated onto a polyvinylidene fluoride (PVDF) membrane in a microplate overnight at 4° C. The plate is blocked with serum/protein to prevent nonspecific binding to the antibody. After blocking, effector cells (such as splenocytes isolated from immunized mice or PBMCs isolated from rhesus macaques) and targets (such as PSMA peptides from peptide library, target cells pulsed with antigen specific peptides or tumor cells expressing the relevant antigens) are added to the wells and incubated overnight at 37° C. in a 5% CO2 incubator. […]

Substance: human PSMA modified antigen (SEQ ID NO: 9): immunogenic polypeptide of amino acids 15-750 of human PSMA, membrane-bound, expressed from DNA construct in PJV7563 vector
- Average mean fluorescent intensity (293 cells; 293 cells transfected with PJV7563 vector, stained three days later with mouse anti-PSMA antibody): 12270
- expression on the cell surface (293 cells; transfected 293 cells, FACS): expressed on the cell surface

Substance: 5′ TCGTCGTTTTGTCGTTTTGTCGTT3′ [CpG7909]
- dose limiting toxicity ([1]; single dose subcutaneous): myalgia and constitutional effects
- maximum tolerated dose (MTD) ([1]; single dose subcutaneous): 0.45 mg/kg
- dose well tolerated with no clinical effects and no significant toxicity ([1]; single intravenous dose): up to 1.05 mg/kg

Substance: CP-870893: fully human agonistic CD40 monoclonal antibody, heavy and light chain SEQ ID NO: 40 and 41
- dose-limiting toxicities ([2]; human, in vivo, iv): grade 3 CRS and grade 3 urticaria
- maximum tolerated dose (MTD) ([2]; phase I clinical study, intravenous infusion): 0.2 mg/kg

Substance: CP-675,206: fully human IgG2 anti-CTLA-4 monoclonal antibody, CAS 745013-59-6
- vaccine induced immune response compared to vaccine alone (rhesus PSMA; 16.7 mg subcutaneous (group 4), P=0.05): significantly enhanced
- vaccine induced immune response compared to vaccine alone (rhesus PSMA; 33.4 mg subcutaneous (group 3), P=0.004): significantly enhanced
- vaccine induced immune response compared to vaccine alone (rhesus PSMA; dose of 50 mg subcutaneous (group 2), P=0.001 by Student's T-test): significantly enhanced
